# Results taken from PubChem BioAssay AID2060902 (Molecular Pharmacology Branch, DTP, NCI, 2025).
# System: 485368-065-R3-J5-PDC spheroids with HUVEC/MSC, viability
# Test: Anticancer human tumor 485368-065-R3-J5-PDC patient-derived pancreatic carcinoma cell line growth inhibition [RAS]
# Conditions: for IC50: curve of first compound; for viability, T/C: stronger effect = lower value
# Source text: RAS pathway inhibitors in Combinations in Complex Spheroids
# A high-throughput screen of multi-cell type tumor spheroids was designed to identify active combinations of RAS pathway inhibitors and targeted small molecules. Complex spheroids include a stromal component modeled by human endothelial cells (HUVEC) and fibroblasts modeled by human mesenchymal stem cells (MSCs). The concentration ranges selected for each drug and investigational agent were based upon clinically achievable concentrations if the clinical Cmax of the agent was known.
# Compounds. The drugs and investigational agents: abemaciclib (NSC768073), cobimetinib (NSC768068), divarasib (GDC6063, NSC841802), docetaxel (NSC628503), GDC-1971 (RLY-1971, NSC841576), gemcitabine (NSC613327), inavolisib (NSC800729), ipatasertib (NSC767898), KB-0742 (NSC834161), MRTX-1133 (NSC836407), osimertinib (NSC779217), RMC-4630 (NSC839698), RMC-6236 (NSC851965), RMC-6291 (NSC852671), Ro-3306 (NSC812927), sapanisertib (NSC764658), SN-38 (NSC673596), staurosporine (NSC755774), SY5609 (NSC837396), and tovorafenib (DAY101, NSC766906), were obtained from the National Cancer Institute (NCI) Developmental Therapeutics Program Chemical Repository. The FDA-approved anticancer drug set is available from the NCI Developmental Therapeutics Program. […] The stock solutions were prepared in dimethyl sulfoxide (DMSO, Sigma-Aldrich, St. Louis, MO, cat. D2650) at 800-fold the tested concentration and stored at -70 degrees C prior to their use. All drugs and investigational agents were tested over a range starting from a high concentration at or near the clinical Cmax and decreasing in half-log increments. If the clinical Cmax for an agent had not been determined, the highest concentration tested was 10 microM.
# Cell Culture. All cells were maintained in an incubator at 37 degrees C and 5% CO2 with 95% humidity. The PDC lines were cultured according to standard operating procedures established by the NCI PDMR. All PDCs were thawed and cultured in Matrigel-coated flasks prepared with a working solution of 1X Ham's F-12 nutrient mix, without supplementation (Invitrogen, Waltham, MA, cat. 11765054), 100 U/mL penicillin-streptomycin (Invitrogen, cat. 15140122), and 2.5% Matrigel (Corning Inc., Corning, NY, cat. 354248) for the first three passages. The 362531-283-R-J2-PDC and 782815-120-R-J1-PDC lines were cultured in 6C/Colon 1B media, which includes advanced DMEM/F-12 (Thermo Fisher Scientific, cat. 12634028), 10 mM HEPES (Thermo Fisher Scientific, cat. 15630080), 1X GlutaMAX supplement (Thermo Fisher Scientific, cat. 35050061), 0.1 mg/mL primocin (InvivoGen, San Diego, CA, cat. ant-pm-2), 10% defined fetal bovine serum, heat inactivated (HyClone Laboratories Inc., Logan, UT, cat. SH30070.03HI), 50% L-WRN conditioned media (ATCC, cat. CRL-3276), 1.25 mM N-Acetyl-L-cysteine (Sigma-Aldrich, cat. A9165), 10 mM nicotinamide (Sigma-Aldrich, cat. N0636), 1X B-27 supplement (Thermo Fisher Scientific, cat. 17504044), 1X N-2 supplement (Thermo Fisher Scientific, cat. 17502048), 50 ng/mL human EGF (Thermo Fisher Scientific, cat. PHG0311), and 10 microM Y-27632 dihydrochloride (Tocris Bioscience, cat. 1254). The K12877-001-R-J1-PDC line was cultured in 6I media, which includes all 6C/Colon 1B media plus 10 ng/mL human FGF-10 (PeproTech, cat. 100-26), 1 ng/mL human FGF-2 (PeproTech, cat. 100-18B), 1 µM prostaglandin E2 (Tocris Bioscience, cat. 2296), […] hydrocortisone (Sigma-Aldrich, cat. H4001), and […] bovine insulin (Sigma-Aldrich, cat. I6634). The K86415-001-R-J1-PDC line was cultured in 6D media, which includes all 6C/Colon 1B media components minus the L-WRN conditioned media. The 485176-168-R4-J1-PDC was cultured in PANC media, which includes all 6C/Colon 1B media plus 100 ng/mL human FGF-10 (PeproTech, cat. 100-26), 500 nM SB-431542 (Selleckchem, cat. S1067), and 10 nM gastrin (Tocris Bioscience, cat. 3006). […]
# [1] = second compound 0.0316 µM, first compound 0.0316 µM
# [2] = second compound 0.0316 µM, first compound 0.1 µM
# [3] = second compound 0.0316 µM, first compound 0.316 µM
# [4] = second compound 0.0316 µM, first compound 1 µM
# [5] = second compound 0.0316 µM, first compound 3.16 µM
# [6] = second compound 0.0316 µM, first compound 10 µM
# [7] = second compound 0.1 µM, first compound 0.0316 µM
# [8] = second compound 0.1 µM, first compound 0.1 µM
# [9] = second compound 0.1 µM, first compound 0.316 µM
# [10] = second compound 0.1 µM, first compound 1 µM
# [11] = second compound 0.1 µM, first compound 3.16 µM
# [12] = second compound 0.1 µM, first compound 10 µM
# [13] = second compound 0.316 µM, first compound 0.0316 µM
# [14] = second compound 0.316 µM, first compound 0.1 µM
# [15] = second compound 0.316 µM, first compound 0.316 µM
# [16] = second compound 0.316 µM, first compound 1 µM
# [17] = second compound 0.316 µM, first compound 3.16 µM
# [18] = second compound 0.316 µM, first compound 10 µM
# [19] = second compound 1 µM, first compound 0.0316 µM
# [20] = second compound 1 µM, first compound 0.1 µM
# [21] = second compound 1 µM, first compound 0.316 µM
# [22] = second compound 1 µM, first compound 1 µM
# [23] = second compound 1 µM, first compound 3.16 µM
# [24] = second compound 1 µM, first compound 10 µM
# [25] = second compound 3.16 µM, first compound 0.0316 µM
# [26] = second compound 3.16 µM, first compound 0.1 µM
# [27] = second compound 3.16 µM, first compound 0.316 µM
# [28] = second compound 3.16 µM, first compound 1 µM
# [29] = second compound 3.16 µM, first compound 3.16 µM
# [30] = second compound 3.16 µM, first compound 10 µM
# [31] = second compound 10 µM, first compound 0.0316 µM
# [32] = second compound 10 µM, first compound 0.1 µM
# [33] = second compound 10 µM, first compound 0.316 µM
# [34] = second compound 10 µM, first compound 1 µM
# [35] = second compound 10 µM, first compound 3.16 µM
# [36] = second compound 10 µM, first compound 10 µM
# 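Further: spheroids exposed to agents for seven days before readout.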
structure (smiles),measurement,setting,value
Cc1nc(N2CCC3(CC2)COC(C)C3N)c(CO)nc1Sc1ccnc(N)c1Cl (stereo unspecified) + C#Cc1c(F)ccc2cc(O)cc(-c3ncc4c(N5CC6CCC(C5)N6)nc(OCC56CCCN5CC(F)C6)nc4c3F)c12,IC50,second compound 0.0316 µM,> 10000 nM
same,IC50,second compound 0.1 µM,> 10000 nM
same,IC50,second compound 0.316 µM,1910 nM
same,IC50,second compound 1 µM,821 nM
same,IC50,second compound 3.16 µM,106 nM
same,IC50,second compound 10 µM,< 31.6 nM
same,"viability, T/C",[1],98.3%
same,"viability, T/C",[2],88.5%
same,"viability, T/C",[3],87.3%
same,"viability, T/C",[4],75.1%
same,"viability, T/C",[5],60%
same,"viability, T/C",[6],58.8%
same,"viability, T/C",[7],110%
same,"viability, T/C",[8],92.3%
same,"viability, T/C",[9],74%
same,"viability, T/C",[10],62.7%
same,"viability, T/C",[11],63.6%
same,"viability, T/C",[12],51.8%
same,"viability, T/C",[13],101%
same,"viability, T/C",[14],89.6%
same,"viability, T/C",[15],78.5%
same,"viability, T/C",[16],52.4%
same,"viability, T/C",[17],47.5%
same,"viability, T/C",[18],44%
same,"viability, T/C",[19],91.5%
same,"viability, T/C",[20],77.2%
same,"viability, T/C",[21],56.7%
same,"viability, T/C",[22],47.6%
same,"viability, T/C",[23],42.2%
same,"viability, T/C",[24],30%
same,"viability, T/C",[25],65.9%
same,"viability, T/C",[26],49.7%
same,"viability, T/C",[27],39.1%
same,"viability, T/C",[28],31.9%
same,"viability, T/C",[29],24.7%
same,"viability, T/C",[30],21.6%
same,"viability, T/C",[31],36.3%
same,"viability, T/C",[32],29.7%
same,"viability, T/C",[33],24.3%
same,"viability, T/C",[34],19.9%
same,"viability, T/C",[35],19.7%
same,"viability, T/C",[36],12.8%
NC1c2ccccc2OC12CCN(c1cnc3c(N4CCCc5ncccc54)n[nH]c3n1)CC2 (stereo unspecified) + C#Cc1c(F)ccc2cc(O)cc(-c3ncc4c(N5CC6CCC(C5)N6)nc(OCC56CCCN5CC(F)C6)nc4c3F)c12,IC50,second compound 0.0316 µM,> 10000 nM
same,IC50,second compound 0.1 µM,2380 nM
same,IC50,second compound 0.316 µM,1020 nM
same,IC50,second compound 1 µM,117 nM
same,IC50,second compound 3.16 µM,< 31.6 nM
same,IC50,second compound 10 µM,< 31.6 nM
same,"viability, T/C",[1],82.1%
same,"viability, T/C",[2],79.2%
same,"viability, T/C",[3],70.9%
same,"viability, T/C",[4],66.3%
same,"viability, T/C",[5],72.1%
same,"viability, T/C",[6],55%
same,"viability, T/C",[7],76%
same,"viability, T/C",[8],72.9%
same,"viability, T/C",[9],61.7%
same,"viability, T/C",[10],60.7%
same,"viability, T/C",[11],44.2%
same,"viability, T/C",[12],43.9%
same,"viability, T/C",[13],69.9%
same,"viability, T/C",[14],61.6%
same,"viability, T/C",[15],58.6%
same,"viability, T/C",[16],54.4%
same,"viability, T/C",[17],35.5%
same,"viability, T/C",[18],28.8%
same,"viability, T/C",[19],60.3%
same,"viability, T/C",[20],47.4%
same,"viability, T/C",[21],43.4%
same,"viability, T/C",[22],37.9%
same,"viability, T/C",[23],28.9%
same,"viability, T/C",[24],18.9%
same,"viability, T/C",[25],40%
same,"viability, T/C",[26],33.7%
same,"viability, T/C",[27],27.5%
same,"viability, T/C",[28],23.7%
same,"viability, T/C",[29],17.8%
same,"viability, T/C",[30],17.5%
same,"viability, T/C",[31],23.3%
same,"viability, T/C",[32],20.3%
same,"viability, T/C",[33],17.9%
same,"viability, T/C",[34],14.2%
same,"viability, T/C",[35],13%
same,"viability, T/C",[36],12.8%
Nc1ccn(C2OC(CO)C(O)C2(F)F)c(=O)n1 (stereo unspecified) + C#Cc1c(F)ccc2cc(O)cc(-c3ncc4c(N5CC6CCC(C5)N6)nc(OCC56CCCN5CC(F)C6)nc4c3F)c12,IC50,second compound 0.0316 µM,6.36 nM
same,IC50,second compound 0.1 µM,6.3 nM
same,IC50,second compound 0.316 µM,6.51 nM
same,IC50,second compound 1 µM,6.09 nM
same,IC50,second compound 3.16 µM,5.96 nM
same,IC50,second compound 10 µM,< 3.16 nM
same,"viability, T/C","second compound 0.0316 µM, first compound 0.00316 µM",98.4%
same,"viability, T/C","second compound 0.0316 µM, first compound 0.01 µM",18.8%
same,"viability, T/C",[1],8.96%
same,"viability, T/C",[2],11.8%
same,"viability, T/C",[3],11.1%
same,"viability, T/C",[4],14.4%
same,"viability, T/C","second compound 0.1 µM, first compound 0.00316 µM",93.6%
same,"viability, T/C","second compound 0.1 µM, first compound 0.01 µM",20.7%
same,"viability, T/C",[7],10.9%
same,"viability, T/C",[8],9.95%
same,"viability, T/C",[9],11.6%
same,"viability, T/C",[10],12.8%
same,"viability, T/C","second compound 0.316 µM, first compound 0.00316 µM",94.5%
same,"viability, T/C","second compound 0.316 µM, first compound 0.01 µM",23.5%
same,"viability, T/C",[13],10.9%
same,"viability, T/C",[14],10.3%
same,"viability, T/C",[15],11.8%
same,"viability, T/C",[16],11.8%
same,"viability, T/C","second compound 1 µM, first compound 0.00316 µM",90.4%
same,"viability, T/C","second compound 1 µM, first compound 0.01 µM",19.5%
same,"viability, T/C",[19],12.1%
same,"viability, T/C",[20],8.97%
same,"viability, T/C",[21],10.8%
same,"viability, T/C",[22],11%
same,"viability, T/C","second compound 3.16 µM, first compound 0.00316 µM",89%
same,"viability, T/C","second compound 3.16 µM, first compound 0.01 µM",18.3%
same,"viability, T/C",[25],9.24%
same,"viability, T/C",[26],9.65%
same,"viability, T/C",[27],9.37%
same,"viability, T/C",[28],9.7%
same,"viability, T/C","second compound 10 µM, first compound 0.00316 µM",37.7%
same,"viability, T/C","second compound 10 µM, first compound 0.01 µM",20.8%
same,"viability, T/C",[31],8.12%
same,"viability, T/C",[32],7.5%
same,"viability, T/C",[33],8.95%
same,"viability, T/C",[34],9.6%
